Measured values as given in article PMC8911699, “Biological and Cheminformatics Studies of Newly Designed Triazole Based Derivatives as Potent Inhibitors against Mushroom Tyrosinase” (Molecules, 2022).
Entries after “also recorded” stand apart in the source; their conditions may differ.

How the values were obtained:
[1] = molecular target: T1, mushroom tyrosinase (Agaricus bisporus, UniProt C7FF04); assay: Mushroom tyrosinase inhibition assay (dopachrome technique, L-DOPA substrate); format: biochemical
Protocol: The inhibition of mushroom tyrosinase was determined by an alteration of the dopachrome technique using L-DOPA as a substrate. The mushroom tyrosinase (EC-232-653-4) was purchased from Sigma Korea. […] After the incubation time, the absorbance was measured at 475 nm using a microplate reader (SpectraMax ABS, Molecular Devices, California, CA, USA) and the inhibition percentage was calculated in relation to the control. […] Each concentration was scrutinized in three independent experiments. IC50 values were calculated by non-linear regression using GraphPad Prism 5.0. The % inhibition of tyrosinase was calculated as follows:Inhibition (%) = [(B−S)/B] ×100 where the B and S are the absorbances of the blank control and normal samples, respectively.
Target sequence in this assay (C7FF04 2-392): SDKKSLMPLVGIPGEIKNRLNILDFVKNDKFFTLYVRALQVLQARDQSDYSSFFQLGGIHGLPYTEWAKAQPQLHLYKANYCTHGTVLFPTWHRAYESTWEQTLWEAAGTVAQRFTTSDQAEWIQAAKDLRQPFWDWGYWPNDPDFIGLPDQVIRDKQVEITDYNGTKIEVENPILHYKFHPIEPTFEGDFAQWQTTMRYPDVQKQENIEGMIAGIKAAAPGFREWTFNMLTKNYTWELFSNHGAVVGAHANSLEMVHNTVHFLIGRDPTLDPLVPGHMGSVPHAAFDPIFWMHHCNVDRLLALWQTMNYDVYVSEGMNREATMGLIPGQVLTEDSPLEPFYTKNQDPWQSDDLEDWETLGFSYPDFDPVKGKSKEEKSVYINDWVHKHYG

[2] = molecular target: T1, mushroom tyrosinase; assay: Inhibition kinetics (Lineweaver-Burk and secondary plots); format: biochemical; set-up: purchased Sigma Korea EC-232-653-4
Protocol: To understand the inhibitory mechanism of synthetic compounds on tyrosinase, an inhibition kinetic study was performed. […] The kinetic results of the enzyme expressed by the Lineweaver–Burk plot of 1/V versus 1/[S] for different inhibitor concentrations provided a series of straight lines. […] Additionally, the Km value increased with increasing the concentration of the inhibitor. […] The inhibition constant Ki was computed from Figure 4.
A series of experiments were performed to regulate the inhibition kinetics of 9h by following the already reported methods. The inhibitor concentrations for 9h were 0.00, 0.049, 0.098, and 0.196 µM. Substrate (L-DOPA) concentrations were between 0.0625 to 2 mM in all kinetic studies. Pre-incubation and measurement time were the same as discussed in the mushroom tyrosinase inhibition assay protocol. Maximal initial velocity was obtained from the initial linear portion of absorbance up to five minutes after the addition of enzyme at the 30 s interval. The inhibition type of the enzyme was assayed by Lineweaver–Burk plots of the inverse of velocities (1/V) versus the inverse of substrate concentration 1/[S] mM^−1.
Target sequence in this assay (C7FF04 1-392 limits assumed): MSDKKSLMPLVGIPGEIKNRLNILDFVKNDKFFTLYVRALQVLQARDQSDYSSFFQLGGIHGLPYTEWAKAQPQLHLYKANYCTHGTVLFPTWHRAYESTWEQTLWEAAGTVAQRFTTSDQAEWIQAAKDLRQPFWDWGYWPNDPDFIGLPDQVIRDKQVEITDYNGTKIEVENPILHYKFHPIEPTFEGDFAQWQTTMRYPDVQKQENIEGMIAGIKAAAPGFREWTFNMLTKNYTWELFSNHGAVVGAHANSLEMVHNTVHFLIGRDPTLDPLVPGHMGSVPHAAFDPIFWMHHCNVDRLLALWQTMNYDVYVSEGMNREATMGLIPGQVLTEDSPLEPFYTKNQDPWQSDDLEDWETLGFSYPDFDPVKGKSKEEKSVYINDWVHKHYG

| SMILES | melting point [°C] | response against mushroom tyrosinase inhibition (in words) [1] | inhibition type ([2]; Lineweaver-Burk plot, Vmax same, Km increased) | Ki ([2]; from plot of slope versus inhibitor concentration, L-DOPA 0.0625-2 mM, read-out: inhibition constant Ki) [nM] |
| --- | --- | --- | --- | --- |
| O=C(CSc1nnc(-c2ccc(F)cc2)n1-c1ccc(F)cc1)Nc1ccc(F)cc1 [9b, 2-(4,5-Bis(4-fluorophenyl)-4H-1,2,4-triazol-3-ylthio)-N-(4-fluorophenyl) Acetamide] | 195.3 | did not show any response; also recorded: ineffective counter response | – | – |
| O=C(CSc1nnc(-c2ccc(F)cc2)n1-c1ccc(F)cc1)Nc1ccc(Br)cc1 [9c, 2-(4,5-Bis(4-fluorophenyl)-4H-1,2,4-triazol-3-ylthio)-N-(4-bromophenyl) Acetamide] | 219.3 | did not show any response; also recorded: ineffective counter response | – | – |
| O=C(CSc1nnc(-c2ccccc2)n1-c1ccc(F)cc1)Nc1ccccc1 [9d, 2-(4-(4-Fluorophenyl)-5-phenyl-4H-1,2,4-triazol-3-ylthio)-N-phenylacetamide] | 206 | – | – | – |
| O=C(CSc1nnc(-c2ccccc2)n1-c1ccc(F)cc1)Nc1ccc(F)cc1 [9e, N-(4-fluorophenyl)-2-(4-(4-fluorophenyl)-5-phenyl-4H-1,2,4-triazol-3-ylthio) Acetamide] | 220.1 | – | – | – |
| O=C(CSc1nnc(-c2ccccc2F)n1-c1ccc(F)cc1)Nc1ccc(F)cc1 [9h, N-(4-fluorophenyl)-2-(5-(2-fluorophenyl)-4-(4-fluorophenyl)-4H-1,2,4-triazol-3-ylthio) Acetamide] | – | – | competitively inhibits | 18 |
| O=C(CSc1nnc(-c2ccccc2F)n1-c1ccc(F)cc1)Nc1ccc(Br)cc1 [9i, N-(4-bromophenyl)-2-(5-(2-fluorophenyl)-4-(4-fluorophenyl)-4H-1,2,4-triazol-3-ylthio) Acetamide] | 248.9 | did not show any response | – | – |
